Results: PubChem BioAssay AID330 (DTP/NCI, 2004)
“And” between values parts separate entries of the source, which are not always exact repeats. Identical values can stand only once. Inconclusive results and toxic doses are left out. The calls were made as follows: active = survival T/C of 150% or more; inactive = T/C below 125% in these data.

System: P388 leukemia ip, CD2F1 mice, survival T/C
Experiment: NCI In Vivo Anticancer Drug Screen. Data for tumor model P388 Leukemia (intraperitoneal) in CD2F1 (CDF1) mice
Details: endpoint: median survival time, higher = longer survival
How it was run: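 Mice carrying the transplanted tumor received test compound or vehicle. Survival was recorded in each group, and the value is the treated-group measurement divided by that of the vehicle-treated control group.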

[1] = dose: 100.0 mg/kg/injection, schedule: Q04DX003 (ip), vehicle: saline with Tween-80
[2] = dose: 50.0 mg/kg/injection, schedule: Q01DX005 (ip), vehicle: Klucel (hydroxypropylcellulose) (HPC)
[3] = dose: 100.0 mg/kg/injection, schedule: Q01DX005 (ip), vehicle: Klucel (hydroxypropylcellulose) (HPC)
[4] = dose: 200.0 mg/kg/injection, schedule: Q01DX005 (ip), vehicle: Klucel (hydroxypropylcellulose) (HPC)
[5] = dose: 50.0 mg/kg/injection, schedule: Q01DX009 (ip), vehicle: saline
[6] = dose: 50.0 mg/kg/injection, schedule: Q01DX009 (ip), vehicle: saline with Tween-80
[7] = dose: 100.0 mg/kg/injection, schedule: Q01DX009 (ip), vehicle: saline with Tween-80
[8] = dose: 50.0 mg/kg/injection, schedule: Q01DX005 (ip), vehicle: saline with Tween-80
[9] = dose: 100.0 mg/kg/injection, schedule: Q01DX005 (ip), vehicle: saline with Tween-80
[10] = dose: 200.0 mg/kg/injection, schedule: Q01DX005 (ip), vehicle: saline with Tween-80

Measured: T/C

C[S+](C)CCCNC(=O)c1csc(-c2csc(-c3ccccc3)n2)n1
inactive: dose: 6.25 mg/kg/injection, schedule: Q01DX005 (ip), vehicle: water 100 % of control | dose: 12.5 mg/kg/injection, schedule: Q01DX005 (ip), vehicle: water 107 % of control | dose: 25.0 mg/kg/injection, schedule: Q01DX005 (ip), vehicle: water 106 % of control

C1CC[N-]CC1.C1CC[N-]CC1.C1CC[N-]CC1.C1CC[N-]CC1.[Cl][Co][Cl]
inactive: dose: 25.0 mg/kg/injection, schedule: Q04DX003 (ip), vehicle: saline with Tween-80 100 % of control | dose: 33.0 mg/kg/injection, schedule: Q01DX009 (ip), vehicle: saline with Tween-80 91 % of control | [1] 118 % of control

OC1(Cc2ccc(F)cc2)CCCCCC1
inactive: [2] 102 % of control | [3] 105 % of control | [4] 103 % of control

c1ccc(Cc2ccc[nH]2)cc1
inactive: dose: 100.0 mg/kg/injection, schedule: Q01DX001 (ip), vehicle: distilled water + alcohol 100 % of control | dose: 200.0 mg/kg/injection, schedule: Q01DX001 (ip), vehicle: distilled water + alcohol 98 % of control | dose: 400.0 mg/kg/injection, schedule: Q01DX001 (ip), vehicle: distilled water + alcohol 112 % of control

CNC(C)C(O)c1ccc(O)cc1 (stereo not given)
inactive: [5] 102 % of control and 92 % of control | dose: 100.0 mg/kg/injection, schedule: Q01DX009 (ip), vehicle: saline 102 % of control and 105 % of control | dose: 200.0 mg/kg/injection, schedule: Q01DX009 (ip), vehicle: saline 102 % of control and 108 % of control | dose: 400.0 mg/kg/injection, schedule: Q01DX009 (ip), vehicle: saline 102 % of control and 98 % of control

O=C(OC1C(O)OC2COC(=O)c3cc(O)c(O)c(O)c3-c3c(cc(O)c(O)c3O)C(=O)OC2C1O)c1cc(O)c(O)c(O)c1 (stereo not given)
inactive: dose: 3.75 mg/kg/injection, schedule: Q01DX009 (ip), vehicle: saline with Tween-80 97 % of control | dose: 7.5 mg/kg/injection, schedule: Q01DX009 (ip), vehicle: saline with Tween-80 102 % of control | dose: 15.0 mg/kg/injection, schedule: Q01DX009 (ip), vehicle: saline with Tween-80 103 % of control

O=C(Cc1c[nH]c2ccccc12)Nc1nncs1
inactive: dose: 100.0 mg/kg/injection, schedule: Q04DX002 (ip), vehicle: saline with Tween-80 97 % of control | dose: 200.0 mg/kg/injection, schedule: Q04DX002 (ip), vehicle: saline with Tween-80 97 % of control | dose: 400.0 mg/kg/injection, schedule: Q04DX002 (ip), vehicle: saline with Tween-80 110 % of control

c1ccc2c(c1)ccc1c3ccccc3ncc21
inactive: dose: 12.5 mg/kg/injection, schedule: Q04DX003 (ip), vehicle: distilled water + Tween-80 107 % of control | dose: 25.0 mg/kg/injection, schedule: Q04DX003 (ip), vehicle: distilled water + Tween-80 96 % of control | dose: 50.0 mg/kg/injection, schedule: Q04DX003 (ip), vehicle: distilled water + Tween-80 98 % of control | dose: 100.0 mg/kg/injection, schedule: Q04DX003 (ip), vehicle: distilled water + Tween-80 102 % of control | dose: 200.0 mg/kg/injection, schedule: Q04DX003 (ip), vehicle: distilled water + Tween-80 102 % of control | dose: 400.0 mg/kg/injection, schedule: Q04DX003 (ip), vehicle: distilled water + Tween-80 98 % of control

CC1=C(C#N)C(=O)NC1(C)O (stereo not given)
inactive: [2] 98 % of control and 95 % of control | [3] 100 % of control | [4] 100 % of control and 101 % of control

O=C1C2CCCN2C(=O)N1c1ccccc1 (stereo not given)
inactive: dose: 60.0 mg/kg/injection, schedule: Q01DX005 (ip), vehicle: Klucel (hydroxypropylcellulose) (HPC) 105 % of control | dose: 120.0 mg/kg/injection, schedule: Q01DX005 (ip), vehicle: Klucel (hydroxypropylcellulose) (HPC) 97 % of control | dose: 240.0 mg/kg/injection, schedule: Q01DX005 (ip), vehicle: Klucel (hydroxypropylcellulose) (HPC) 96 % of control

CC#CCOCC1CO1 (stereo not given)
inactive: dose: 14.6 mg/kg/injection, schedule: Q01DX009 (ip), vehicle: saline 100 % of control | dose: 22.0 mg/kg/injection, schedule: Q01DX009 (ip), vehicle: saline 109 % of control | dose: 33.0 mg/kg/injection, schedule: Q01DX009 (ip), vehicle: saline 118 % of control | [5] 118 % of control

CC12CC3CC(C)(C1)CC(SC(=N)N)(C3)C2
inactive: dose: 7.5 mg/kg/injection, schedule: Q01DX005 (ip), vehicle: saline with Tween-80 105 % of control | dose: 15.0 mg/kg/injection, schedule: Q01DX005 (ip), vehicle: saline with Tween-80 104 % of control | dose: 30.0 mg/kg/injection, schedule: Q01DX005 (ip), vehicle: saline with Tween-80 106 % of control

N#Cc1ncc(C=P(c2ccccc2)(c2ccccc2)c2ccccc2)n(O)c1=N
inactive: [6] 101 % of control | [7] 104 % of control

CCCCCCCCCCCCCCCCOS(=O)(=O)O (tested in a mixture with another compound)
inactive: dose: 20.0 mg/kg/injection, schedule: Q01DX009 (ip), vehicle: saline with Tween-80 99 % of control | dose: 40.0 mg/kg/injection, schedule: Q01DX009 (ip), vehicle: saline with Tween-80 92 % of control

CN(C)c1ccc(/C=C/c2ccc3ccccc3n2)cc1
inactive: dose: 25.0 mg/kg/injection, schedule: Q01DX009 (ip), vehicle: saline with Tween-80 95 % of control | [6] 100 % of control | [7] 100 % of control | [1] 100 % of control

O=c1sc2ncccc2n1-c1ccc([N+](=O)[O-])cn1
inactive: dose: 100.0 mg/kg/injection, schedule: Q04DX003 (ip), vehicle: saline 103 % of control | dose: 200.0 mg/kg/injection, schedule: Q04DX003 (ip), vehicle: saline 86 % of control | dose: 400.0 mg/kg/injection, schedule: Q04DX003 (ip), vehicle: saline 89 % of control

C1COCCCOCCCOCCCC2(CCCOCCCOC1)CO2
inactive: [8] 110 % of control | [9] 86 % of control | [10] 109 % of control

O=[N+]([O-])CC(O)C(Cl)(Cl)Cl (stereo not given)
inactive: dose: 50.0 mg/kg/injection, schedule: Q01DX001 (ip), vehicle: saline 107 % of control | dose: 100.0 mg/kg/injection, schedule: Q01DX001 (ip), vehicle: saline 107 % of control | dose: 200.0 mg/kg/injection, schedule: Q01DX001 (ip), vehicle: saline 107 % of control

O=C1Nc2ccc(Br)cc2/C1=N/n1c(-c2ccccc2)nc2ccccc2c1=O
inactive: [2] 86 % of control | [3] 87 % of control | [4] 100 % of control

Oc1[nH]c2ccccc2c1N=NC(=S)NC1C2CC3CC(C2)CC1C3 (stereo not given)
inactive: [8] 103 % of control | [9] 100 % of control | [10] 103 % of control

C/C(=N\NC(=O)c1ccncc1)c1cccc(/C(C)=N/NC(=O)c2ccncc2)n1.O=S(=O)([O-])[O-].[Fe+2]
inactive: dose: 12.5 mg/kg/injection, schedule: Q01DX005 (ip), vehicle: saline with Tween-80 97 % of control | dose: 25.0 mg/kg/injection, schedule: Q01DX005 (ip), vehicle: saline with Tween-80 100 % of control | [8] 87 % of control and 95 % of control

CCC(=O)C(=O)NC(C)C(C)=O (stereo not given)
inactive: [8] 99 % of control | [9] 98 % of control | [10] 100 % of control

O=C1c2ccccc2C(=O)N1c1cccc(CBr)c1
inactive: dose: 12.5 mg/kg/injection, schedule: Q01DX005 (ip), vehicle: Klucel (hydroxypropylcellulose) (HPC) 102 % of control | dose: 25.0 mg/kg/injection, schedule: Q01DX005 (ip), vehicle: Klucel (hydroxypropylcellulose) (HPC) 114 % of control | [2] 113 % of control

CC1OC(n2ccc(NC(=O)c3ccc(NC(=O)C(C)(N)CO)cc3)nc2=O)CCC1OC1OC(C)C(N(C)C)C(O)C1O (stereo not given)
inactive: [1] 100 % of control | dose: 200.0 mg/kg/injection, schedule: Q04DX003 (ip), vehicle: saline with Tween-80 100 % of control | dose: 400.0 mg/kg/injection, schedule: Q04DX003 (ip), vehicle: saline with Tween-80 109 % of control

O=[N+]([O-])c1ccc(F)c(Cl)c1
inactive: dose: 100.0 mg/kg/injection, schedule: Q04DX003 (ip), vehicle: other 100 % of control | dose: 200.0 mg/kg/injection, schedule: Q04DX003 (ip), vehicle: other 100 % of control

C1Cc2c3c(c4c(c2C1)CCC4)CCC3
inactive: dose: 25.0 mg/kg/injection, schedule: Q01DX009 (ip), vehicle: Klucel (hydroxypropylcellulose) (HPC) 91 % of control | dose: 50.0 mg/kg/injection, schedule: Q01DX009 (ip), vehicle: Klucel (hydroxypropylcellulose) (HPC) 95 % of control | dose: 100.0 mg/kg/injection, schedule: Q01DX009 (ip), vehicle: Klucel (hydroxypropylcellulose) (HPC) 91 % of control | dose: 200.0 mg/kg/injection, schedule: Q01DX009 (ip), vehicle: Klucel (hydroxypropylcellulose) (HPC) 100 % of control

CC1CN(Cc2ccccc2)CC(C)N1Cc1ccccc1 (stereo not given)
inactive: [8] 103 % of control | [9] 105 % of control | [10] 103 % of control
